# Measured values from patent US20210403415A1, “COMPOUNDS AND METHODS TO ATTENUATE TUMOR PROGRESSION AND METASTASIS” (THE TRUSTEES OF INDIANA UNIVERSITY, priority 2018, published 2021).
# Where two headings read alike, the source gives them in different places.
# Columns and labels:
# TEAD2 binding to Yap1 = molecular target: T1, TEAD2 binding to Yap1 (Homo sapiens, UniProt Q15562); assay: Fluorescence polarization, HIS-TEAD2 with FAM-Yap60-99 peptide; conditions: 24 h at 4° C.
# T1 construct: TEAD2 (217-447) was expressed as N-terminal HIS-fusion protein; made in house; host or cells: E. coli BL-21 (DE3), pET-28a
# T1 sequence (Q15562 217-447): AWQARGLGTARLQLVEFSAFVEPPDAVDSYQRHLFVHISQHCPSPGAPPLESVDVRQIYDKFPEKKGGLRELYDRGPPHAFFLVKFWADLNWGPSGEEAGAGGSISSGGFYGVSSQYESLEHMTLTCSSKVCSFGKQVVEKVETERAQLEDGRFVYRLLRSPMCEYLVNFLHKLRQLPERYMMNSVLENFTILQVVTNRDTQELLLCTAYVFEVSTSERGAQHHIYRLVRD
# Method: (§1) GST-TEAD4, GST-TEAD4 Cys367Ser mutant or HIS-TEAD2 interaction with Yap1 was investigated using a fluorescently-labeled peptide (FAM-Yap60-99), consisting of FAM-labeled TEAD-binding peptide fragment of Yap1 (FAM-[…] TVPMCLRKLPASFCKPP), which has a disulfide bridge (American Peptide, Sunnyvale, Calif.). Addition of FAM-Yap60-99 to the TEAD was followed by measurement of changes in polarization. 40 μL of 125 nM GST-TEAD4 WT or GST-TEAD4 Cys367Ser in assay buffer (PBS with 0.01% v/v Triton-X100) or 40 μL of 64 nM HIS-TEAD2 was added to a 384-well black polystyrene plate (Cat. No. 262260; Nunc, Roskilde, Denmark) and incubated with 5 μL of […] serially diluted compounds in assay buffer supplemented with 20% v/v DMSO for 24 h at 4° C. Finally, 5 μL of 160 nM FAM-Yap60-99 peptide was added, the plate centrifuged, and the polarization was measured on an Envision Multilabel Plate Reader (PerkinElmer, Waltham, Mass.) using a filter set with excitation and emission wavelengths of 485 and 535 nm, respectively. Percent inhibition was calculated as relative to a minimum inhibition control, which is without compound, and a maximum inhibition control, which is without a TEAD.
# TEAD4.Yap1 interaction [1] = molecular target: T2, TEAD4.Yap1 interaction (Homo sapiens, UniProt Q15561); assay: Fluorescence polarization, GST-TEAD4 with FAM-Yap60-99 peptide; assay type: binding; parameters: TEAD4 (217-434), TEAD4 (217-434) Cys367Ser mutant and Yap1 (Full-length) were expressed as GST-fusion proteins; made in house; host or cells: E. coli BL-21 (DE3), pGEX-6P-1; conditions: for inhibition / maximum inhibition of TEAD4.Yap1 interaction: 24 h incubation at 4° C.; for t1/2^∞ (half-life of inactivation): corresponding to kinact; for inhibition of TEAD4.Yap1 interaction: FP assay, 24 h at 4° C.
# T2 sequence (Q15561 217-434): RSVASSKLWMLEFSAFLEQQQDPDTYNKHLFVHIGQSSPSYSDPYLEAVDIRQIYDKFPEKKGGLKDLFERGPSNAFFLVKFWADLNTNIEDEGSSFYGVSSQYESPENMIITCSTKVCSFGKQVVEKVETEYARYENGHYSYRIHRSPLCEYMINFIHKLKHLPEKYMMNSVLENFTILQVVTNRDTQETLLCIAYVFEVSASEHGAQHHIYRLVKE
# Method: as §1
# For the determination of the inhibition efficiency kinact/K1, the protein compound incubation time was varied between […], prior to the addition of the FAM-Yap60-99 peptide and fluorescence polarization measurements. The progressive decrease in TEAD activities were plotted against time for all 10 concentrations ([…]) of the compounds and the observed rate of inhibition (kobs) was calculated by fitting a simple exponential function.
# The observed rate of inhibition was then plotted against the concentration of the compound and a […] function kobs=kinact[Inhibitor]/K1+[Inhibitor] was fitted to determine the kinact and K1 values.
# TEAD4.Yap1 interaction [2] = molecular target: T2, TEAD4.Yap1 interaction; assay: as above; assay type: binding; parameters: TEAD4 (217-434), TEAD4 (217-434) Cys367Ser mutant and Yap1 (Full-length) were expressed as GST-fusion proteins; made in house; host or cells: E. coli BL-21 (DE3), pGEX-6P-1; conditions: 0.5, 6, 24, 48 h incubation at 4° C., 0.1-100 μM
# TEAD4 [3] = molecular target: T3, TEAD4 (Homo sapiens, UniProt Q15561); assay: Whole protein ESI mass spectrometry, adduct formation; assay type: binding; parameters: TEAD4 (217-434), TEAD4 (217-434) Cys367Ser mutant and Yap1 (Full-length) were expressed as GST-fusion proteins; GST (N, cleaved yes); made in house; host or cells: E. coli BL-21 (DE3), pGEX-6P-1; conditions: for covalent adduct formation with TEAD4 / adduct with TEAD4: 10 μM TEAD4, 200 μM compound, 24 h at 4° C.
# Method: (§2) The samples were centrifuged at 20,000×g for […] to remove precipitants before being injected into an empty column on an Agilent 1200 liquid chromatography system (Agilent, Santa Clara, Calif.), using 80% Buffer A (H2O, 5 mM NH4OAc) and 20% Buffer B (ACN, 5 mM NH4OAc), and the masses were detected on an Agilent 6520 Accurate Mass Q-TOF.
# It was determined whether a covalent bond formed between inventive compounds and TEAD4. […] The covalent adduct formation by compound 2 was relatively fast (FIG. 3G), reaching nearly 100% adduct formation after 30 min incubation with TEAD4. Because the rate of inhibition developed over a longer timescale (FIG. 3C), compound 2 is proposed to induce a slow conformational change in TEAD4 that prevents its interaction with Yap1. To rule out the possibility that compound 2 induces slow aggregation of TEAD4, and not the proposed slow conformational change, GST-TEAD4 was incubated with DMSO compound 2 for 24 h at 4° C., followed by injection into an SEC column (FIG. 3H). […] A slight increase in dimer formation for the TEAD4 sample incubated with compound 2 occurred compared to the sample incubated with DMSO. […] Furthermore, it is highly unlikely that Cys-367 oxidation was responsible for the lack of 100% inhibition at longer times since it has been shown that covalent bond formation is rapid and complete within less than an hour.
# Target sequence in this assay (Q15561 217-434): as above
# TEAD4 [4] = molecular target: T3, TEAD4; assay: Covalent streptavidin pull down of myc-TEAD4 from HEK293 cell lysates; assay type: cell-based; parameters: expressed in transfected cells; host or cells: HEK293; conditions: added to cell lysates
# Method: HEK293 cells transfected with the myc-TEAD4 construct were grown for 48 h and then treated with DMSO or with 25 μM of compound 2 for an additional 48 h. Cells were then harvested in lysis buffer (50 mM Tris-HCl, pH 7.3, 150 mM NaCl, 0.5 mM EDTA, 1% Triton X-100, PhosSTOP phosphatase inhibitor cocktail, and EDTA-free protease inhibitors cocktail). Cell lysates containing 2 mg of protein were incubated with the indicated compounds or DMSO for 24 h. Extracts were then incubated with Dynabeads M-280 Streptavidin (Sigma-Aldrich) for 2 h at 4° C. Dynabeads were then washed and bound proteins were denatured and eluted according to the manufacturer's instructions. Relative levels of myc-TEAD4 from each complex were measured by immunoblot analysis with the anti-c-Myc antibody (1:5,000, Sigma-Aldrich).
# Target sequence in this assay (Q15561 whole entry, the tested form may be a part): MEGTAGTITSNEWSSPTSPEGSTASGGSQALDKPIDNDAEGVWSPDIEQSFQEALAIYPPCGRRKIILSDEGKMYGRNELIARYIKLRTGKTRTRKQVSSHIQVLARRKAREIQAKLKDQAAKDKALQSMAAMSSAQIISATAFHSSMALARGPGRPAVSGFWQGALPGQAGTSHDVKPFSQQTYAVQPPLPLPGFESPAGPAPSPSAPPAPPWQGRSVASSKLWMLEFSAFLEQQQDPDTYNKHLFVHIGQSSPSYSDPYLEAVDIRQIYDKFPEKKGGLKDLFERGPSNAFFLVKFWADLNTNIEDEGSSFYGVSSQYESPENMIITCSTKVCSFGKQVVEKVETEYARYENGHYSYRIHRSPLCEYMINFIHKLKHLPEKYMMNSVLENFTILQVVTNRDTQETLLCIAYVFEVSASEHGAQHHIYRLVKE
# [5] = test system: patient-derived GBM43 glioblastoma spheroids; assay: GBM43 spheroid viability (Alamar blue); assay type: cell-based, human; conditions: Homo sapiens; three-dimensional spheroids; read-out: EC50, inhibition of GBM43 spheroid growth
# Method: Early-passage GBM43 cells were cultured in ultralow adherence plates (Corning Inc.) at 1 to 2×10^3 cells/mL in DMEM supplemented with 1% […] (Invitrogen), 2% B27 (Invitrogen), 25 ng/mL epidermal growth factor (EGF, 25 ng/mL fibroblast growth factor (FGF) (R&D Systems, Inc.), […], 2 ng/mL platelet growth factor, and 100 ng/mL each of penicillin and streptomycin (Invitrogen Inc.). Individual cells were recovered from spheres by incubation with Accutase (Sigma-Aldrich) for 10-15 minutes. Cells (50-100/well) were then seeded in fresh sphere-forming media in 96-well plates. After 2-3 days, Neurospheres containing 6 to 8 cells were treated with compounds 1, 2, and 5.
# HEK-293 were cultured in DMEM with glutamine (Cellgro, Manassas, Va.) supplemented with 10% FBS and 1% penicillin/streptomycin in a 5% CO2 atmosphere at 37° C. Tumors were expanded by passage in the flank of NOD/SCIDγnull mice. To generate GBM43 cell lines, tumors were harvested, disaggregated, and maintained in 2.5% FBS for 14 days on Matrigel-coated plates (BD Biosciences) to remove murine fibroblasts. In-vitro GBM43 cell lines were propagated in DMEM with 10% FBS for no more than 7 passages. Cell line identity was confirmed by DNA fingerprint analysis (IDEXX BioResearch) for species and baseline short-tandem repeat analysis testing. GBM43 spheroids were generated by plating early-passage cells at 2.5×10^4 cells per well in 96-well ultralow attachment plates (Corning Inc.) in DMEM/F12 (1:1; GIBCO) supplemented with 2% B27 supplement (GIBCO), 20 ng/mL epidermal growth factor (EGF), and 20 ng/mL fibroblast growth factor (FGF) (Peprotech) for 2 days. The spheroids were then treated with compounds 1, 2, and 5 and growth analyzed by Alamar blue staining.
# TEAD4 Cys367Ser mutant = molecular target: T4, TEAD4 Cys367Ser mutant (Homo sapiens, UniProt Q15561, C367S); assay: Whole protein ESI mass spectrometry, adduct formation with mutant; assay type: binding; conditions: 5 μM mutant, 12.5, 50, 200 μM at 4° C., 24 h
# T4 construct: TEAD4 (217-434) Cys367Ser mutant and Yap1 (Full-length) were expressed as GST-fusion proteins; made in house; host or cells: E. coli BL-21 (DE3), pGEX-6P-1
# T4 sequence (Q15561 217-434 C367S): as the sequence (Q15561 217-434) above, with C151S counted along it
# Method: as §2
# FIG. 4A illustrates analysis by ESI mass spectrometry after 10 μM TEAD4 Cys367Ser mutant was incubated with 200 μM compound for 24 h at 4° C. FIG. 4B illustrates measurement of fluorescence polarization due to binding when increasing concentration of TEAD4 Cys367Ser mutant was mixed with 16 nM FAM-Yap60-99 peptide (mean±s.d.; n=3). FIG. 4C illustrates measurement of fluorescence polarization due to binding when TEAD4 Cys367Ser mutant was incubated with increasing concentration of compounds for 24 h at 4° C. followed by addition of FAM-Yap60-99 (mean±s.d.; n=3).
# [6] = as tested described herein, read-out: EC50 in the EC50 assay
structure (smiles),measurement,setting,value
"COCCOc1cccc(Nc2ccccc2C(=O)CCl)c1 [Compound 4, 2-chloro-1-(2-((3-(2-methoxyethoxy)phenyl)amino)phenyl)ethanone]",inhibition of TEAD2 binding to Yap1,TEAD2 binding to Yap1,much weaker inhibitors of TEAD2 compared to TEAD4
same,inhibition / maximum inhibition of TEAD4.Yap1 interaction,TEAD4.Yap1 interaction [1],31%
same,"apparent EC50, inhibition of TEAD4.Yap1 protein-protein interaction",TEAD4.Yap1 interaction [1]; 24 h incubation with TEAD4 at 4° C.,substantially lower (nearly an order of magnitude) than its parent compound 2
same,t1/2^∞ (half-life of inactivation),TEAD4.Yap1 interaction [1],67.3 h
same,kinact,TEAD4.Yap1 interaction [2]; read-out: maximum rate of inactivation (kinact) (converted),2.78e-06 s⁻¹
same,covalent adduct formation with TEAD4,TEAD4 [3],formed single adducts
"COc1ccc(C(=O)CCl)c(Nc2cccc(C(F)(F)F)c2)c1 [Compound 6, 2-chloro-1-(4-methoxy-2-((3-(trifluoromethyl)phenyl)amino)phenyl)ethanone]",inhibition of TEAD2 binding to Yap1,TEAD2 binding to Yap1,much weaker inhibitors of TEAD2 compared to TEAD4
same,inhibition / maximum inhibition of TEAD4.Yap1 interaction,TEAD4.Yap1 interaction [1],51%
same,EC50,"TEAD4.Yap1 interaction [1]; 24 h incubation with TEAD4 at 4° C., read-out: apparent EC50, inhibition of TEAD4.Yap1 protein-protein interaction",2.3 ± 0.8 µM
same,t1/2^∞ (half-life of inactivation),TEAD4.Yap1 interaction [1],20 h
same,kinact,TEAD4.Yap1 interaction [2]; read-out: rate of inactivation kinact (converted),9.44e-06 s⁻¹
same,covalent adduct formation with TEAD4,TEAD4 [3],formed single adducts
"O=C(CCl)c1ccccc1Nc1ccc(-c2cccs2)cc1 [Compound 7, 2-chloro-1-(2-((4-(thiophen-2-yl)phenyl)amino)phenyl)ethanone]",inhibition of TEAD4.Yap1 interaction,TEAD4.Yap1 interaction [1],lack of TEAD4 inhibition
same,adduct with TEAD4,TEAD4 [3],100%
same,covalent adduct formation with TEAD4,TEAD4 [3],formed single adducts
"O=C(CCl)c1ccccc1Nc1cccc(-c2cccs2)c1 [Compound 8, 2-chloro-1-(2-((3-(thiophen-2-yl)phenyl)amino)phenyl)ethanone]",inhibition of TEAD4.Yap1 interaction,TEAD4.Yap1 interaction [1],lack of TEAD4 inhibition
same,adduct with TEAD4,TEAD4 [3],100%
same,covalent adduct formation with TEAD4,TEAD4 [3],formed single adducts
"O=C(CCCCC1SCC2NC(=O)NC21)NCCOCCOCCCCCOc1cccc(Nc2ccccc2C(=O)CCl)c1 (stereo not shown) [Compound 9, N-(2-(2-((5-(3-((2-(2-chloroacetyl)phenyl)amino)phenoxy)pentyl)oxy)ethoxy)ethyl)-5-(2-oxohexahydro-1H-thieno[3,4-d]imidazol-4-yl)pentanamide]","TEAD4 in streptavidin pull-down, immunoblot",TEAD4 [4],TEAD4 was specifically detected
"O=C(CF)c1ccccc1Nc1cccc(C(F)(F)F)c1 [Example 10, 2-fluoro-1-(2-((3-(trifluoromethyl)phenyl)amino)phenyl) ethanone]",inhibition of TEAD4.Yap1 interaction,TEAD4.Yap1 interaction [1],minimal inhibition
"O=C(CCl)Nc1ccccc1Nc1cccc(C(F)(F)F)c1 [Example 11, 2-chloro-N-(2-((3-(trifluoromethyl)phenyl)amino)phenyl) acetamide]",max (inhibition) in the EC50 assay,TEAD4.Yap1 interaction [1]; as tested described herein,50%
same,EC50,TEAD4.Yap1 interaction [1]; [6],11.7 µM
C=CC(=O)Nc1ccccc1Nc1cccc(C(F)(F)F)c1 [Example 12],max (inhibition) in the EC50 assay,TEAD4.Yap1 interaction [1]; as tested described herein,23%
same,EC50,TEAD4.Yap1 interaction [1]; [6],13.7 µM
"Cn1nnc2c(C(N)=O)ncn2c1=O [Temozolomide, temozolomide, reference compound]",EC50,[5],244 ± 24 µM
"NC(=O)CI [iodoacetamide, reference compound]",modification of TEAD4 Cys367Ser mutant,TEAD4 Cys367Ser mutant,"no modification of the protein, except for a small adduct that was detected only at 200 μM"
same,inhibition of TEAD4.Yap1 interaction,TEAD4.Yap1 interaction [1],unable to inhibit
same,adduct formation with TEAD4,"TEAD4 [3]; 5 μM TEAD4, 12.5, 50, 200 μM at 4° C., after 6 h",modified by a single adduct
